Assay results published in patent publication US7396837B2, “Antitumoral analogs of lamellarins” (Pharma Mar, S.A.U., priority 2002, dated 2008).
Where two headings read alike, the source gives them in different places.

Assays:
Format in all cases: cell-based
DU-145 = experiment: SRB colorimetric cell growth inhibition assay, DU-145; conditions: Homo sapiens; for GI50: GI=growth inhibition, read-out: GI50 DU-145; for CC50: LC=cell killing (cytotoxic effect); for IC (TGI): TGI=total growth inhibition (cytostatic effect), read-out: TGI DU-145
Summary of the method: (§1)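 Human tumour cells continuously exposed to compound in 96-well culture; growth and viability quantified colorimetrically by sulforhodamine B staining. Mean ± SD from triplicate wells; GI (growth inhibition), TGI (total growth inhibition, cytostatic) and LC (cell killing, cytotoxic) parameters derived.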

HeLa = experiment: SRB colorimetric cell growth inhibition assay, HeLa; conditions: Homo sapiens, HeLa; for GI50: GI=growth inhibition, read-out: GI50 HELA; for CC50: LC=cell killing (cytotoxic effect); for IC (TGI): read-out: TGI HELA
Summary of the method: as §1

LNCaP = experiment: SRB colorimetric cell growth inhibition assay, LNCaP; conditions: Homo sapiens, LNCaP; for GI50: GI=growth inhibition, read-out: GI50 LN-caP; for CC50: LC=cell killing (cytotoxic effect); for IC (TGI): TGI=total growth inhibition (cytostatic effect), read-out: TGI LN-caP
Summary of the method: as §1

A-549 = experiment: SRB colorimetric cell growth inhibition assay, A-549; conditions: Homo sapiens; for GI50: GI=growth inhibition, read-out: GI50 A-549; for CC50: LC=cell killing (cytotoxic effect); for IC (TGI): TGI=total growth inhibition (cytostatic effect), read-out: TGI A-549
Summary of the method: as §1

IGROV = experiment: SRB colorimetric cell growth inhibition assay, IGROV; conditions: Homo sapiens, IGROV; for GI50: GI=growth inhibition, read-out: GI50 IGROV; for CC50: LC=cell killing (cytotoxic effect); for IC (TGI): TGI=total growth inhibition (cytostatic effect), read-out: TGI IGROV
Summary of the method: as §1

LoVo-Dox = experiment: SRB colorimetric cell growth inhibition assay, LoVo-Dox (MDR); conditions: Homo sapiens; for GI50: GI=growth inhibition, read-out: GI50 LOVO-DOX; for CC50: LC=cell killing (cytotoxic effect); for IC (TGI): TGI=total growth inhibition (cytostatic effect), read-out: TGI LOVO-DOX
Summary of the method: as §1

SK-BR-3 = experiment: SRB colorimetric cell growth inhibition assay, SK-BR-3; conditions: Homo sapiens; for GI50: GI=growth inhibition, read-out: GI50 SK-BR-3; for CC50: LC=cell killing (cytotoxic effect); for IC (TGI): TGI=total growth inhibition (cytostatic effect), read-out: TGI SK-BR-3
Summary of the method: as §1

IGROV-ET = experiment: SRB colorimetric cell growth inhibition assay, IGROV-ET (ET-743 resistant); conditions: Homo sapiens; for GI50: GI=growth inhibition, read-out: GI50 IGROV-ET; for CC50: LC=cell killing (cytotoxic effect); for IC (TGI): TGI=total growth inhibition (cytostatic effect), read-out: TGI IGROV-ET
Summary of the method: as §1

PANC-1 = experiment: SRB colorimetric cell growth inhibition assay, PANC-1; conditions: Homo sapiens; for GI50: GI=growth inhibition, read-out: GI50 PANC-1; for CC50: LC=cell killing (cytotoxic effect); for IC (TGI): TGI=total growth inhibition (cytostatic effect), read-out: TGI PANC-1
Summary of the method: as §1

SK-MEL-28 = experiment: SRB colorimetric cell growth inhibition assay, SK-MEL-28; conditions: Homo sapiens; for GI50: GI=growth inhibition, read-out: GI50 MEL-28; for CC50: LC=cell killing (cytotoxic effect); for IC (TGI): TGI=total growth inhibition (cytostatic effect), read-out: TGI MEL-28
Summary of the method: as §1

K-562 = experiment: SRB colorimetric cell growth inhibition assay, K-562; conditions: Homo sapiens; for GI50: GI=growth inhibition, read-out: GI50 K-562; for CC50: LC=cell killing (cytotoxic effect); for IC (TGI): TGI=total growth inhibition (cytostatic effect), read-out: TGI K-562
Summary of the method: as §1

LoVo = experiment: SRB colorimetric cell growth inhibition assay, LoVo; conditions: Homo sapiens, LoVo; for GI50: GI=growth inhibition, read-out: GI50 LOVO; for CC50: LC=cell killing (cytotoxic effect); for IC (TGI): TGI=total growth inhibition (cytostatic effect), read-out: TGI LOVO
Summary of the method: as §1

HT-29 = experiment: SRB colorimetric cell growth inhibition assay, HT-29; conditions: Homo sapiens; for GI50: GI=growth inhibition, read-out: GI50 HT-29; for CC50: LC=cell killing (cytotoxic effect); for IC (TGI): TGI=total growth inhibition (cytostatic effect), read-out: TGI HT-29
Summary of the method: as §1

HeLa-APL = experiment: SRB colorimetric cell growth inhibition assay, HeLa-APL (aplidine resistant); conditions: Homo sapiens; for GI50: read-out: GI50 HELA-APL; for CC50: LC=cell killing (cytotoxic effect); for IC (TGI): read-out: TGI HELA-APL
Summary of the method: as §1

## COc1cc(-c2c3n(c4c(=O)oc5cc(N)c(OC)cc5c24)CCc2cc(OC)c(OC)cc2-3)ccc1N [Compound 57]
DU-145; DU-145, DU-145
  GI50: 3.89 µM
  IC (TGI): 12.2 µM
DU-145; DU-145, DU-145, read-out: LC50 DU-145
  CC50: 19.5 µM
HeLa
  GI50: 0.685 µM
HeLa; read-out: LC50 HELA
  CC50: 19.5 µM
HeLa; TGI=total growth inhibition (cytostatic effect)
  IC (TGI): 5.67 µM
LNCaP; LN-caP
  GI50: 2.16 µM
  IC (TGI): 5.47 µM
LNCaP; LN-caP, read-out: LC50 LN-caP
  CC50: 13.9 µM
A-549; A549, A-549
  GI50: 1.29 µM
  IC (TGI): 19.5 µM
A-549; A549, A-549, read-out: LC50 A-549
  CC50: 19.5 µM
IGROV
  GI50: 0.847 µM
  IC (TGI): 5.88 µM
IGROV; read-out: LC50 IGROV
  CC50: 19.5 µM
LoVo-Dox; LOVO-DOX
  GI50: 0.828 µM
  IC (TGI): 6.91 µM
LoVo-Dox; LOVO-DOX, read-out: LC50 LOVO-DOX
  CC50: 19.5 µM
SK-BR-3; SK-BR-3, SK-BR-3
  GI50: 0.317 µM
  IC (TGI): 5.24 µM
SK-BR-3; SK-BR-3, SK-BR-3, read-out: LC50 SK-BR-3
  CC50: 19.5 µM
IGROV-ET; IGROV-ET
  GI50: 0.89 µM
  IC (TGI): 6.43 µM
IGROV-ET; IGROV-ET, read-out: LC50 IGROV-ET
  CC50: 19.5 µM
PANC-1; PANC-1, PANC-1
  GI50: 0.611 µM
  IC (TGI): 9.7 µM
PANC-1; PANC-1, PANC-1, read-out: LC50 PANC-1
  CC50: 19.5 µM
SK-MEL-28; SK-MEL-28, MEL-28
  GI50: 1.68 µM
  IC (TGI): 12.6 µM
SK-MEL-28; SK-MEL-28, MEL-28, read-out: LC50 MEL-28
  CC50: 19.5 µM
K-562; K562, K-562
  GI50: 2.69 µM
  IC (TGI): 19.5 µM
K-562; K562, K-562, read-out: LC50 K-562
  CC50: 19.5 µM
LoVo
  GI50: 0.717 µM
  IC (TGI): 5.3 µM
LoVo; read-out: LC50 LOVO
  CC50: 19.5 µM
HT-29; HT-29, HT-29
  GI50: 3.49 µM
  IC (TGI): 19.5 µM
HT-29; HT-29, HT-29, read-out: LC50 HT-29
  CC50: 19.5 µM
HeLa-APL; HELA-APL, GI=growth inhibition
  GI50: 3.68 µM
HeLa-APL; HELA-APL, read-out: LC50 HELA-APL
  CC50: 19.5 µM
HeLa-APL; HELA-APL, TGI=total growth inhibition (cytostatic effect)
  IC (TGI): 11 µM

## COc1cc(-c2c3n(c4c(=O)oc5cc(OC(=O)[C@@H](N)CO)c(OC)cc5c24)CCc2c-3cc(OC)c(OC)c2OC(=O)[C@@H](N)CO)ccc1OC(=O)[C@@H](N)CO [Compound 59]
DU-145; DU-145, DU-145
  GI50: 1.39 µM
  IC (TGI): 2.6 µM
DU-145; DU-145, read-out: LC50 DU-145, DU-145
  CC50: 4.86 µM
HeLa; read-out: LC50 HELA, HELA
  CC50: 6.44 µM
HeLa
  IC (TGI): 2.98 µM
  GI50: 1.37 µM
LNCaP; LN-caP
  GI50: 1.37 µM
  IC (TGI): 2.63 µM
LNCaP; read-out: LC50 LN-caP, LN-caP
  CC50: 5.06 µM
A-549; A549, A-549
  GI50: 1.7 µM
  IC (TGI): 3.29 µM
A-549; A549, read-out: LC50 A-549, A-549
  CC50: 6.36 µM
IGROV; read-out: LC50 IGROV, IGROV
  CC50: 7.67 µM
IGROV
  GI50: 0.899 µM
  IC (TGI): 2.63 µM
LoVo-Dox; LOVO-DOX
  GI50: 0.528 µM
  IC (TGI): 1.6 µM
LoVo-Dox; read-out: LC50 LOVO-DOX, LOVO-DOX
  CC50: 4.56 µM
SK-BR-3; SK-BR-3, SK-BR-3
  GI50: 0.372 µM
  IC (TGI): 1.15 µM
SK-BR-3; SK-BR-3, read-out: LC50 SK-BR-3, SK-BR-3
  CC50: 4.11 µM
IGROV-ET; IGROV-ET
  GI50: 0.632 µM
  IC (TGI): 2.04 µM
IGROV-ET; read-out: LC50 IGROV-ET, IGROV-ET
  CC50: 5.98 µM
PANC-1; PANC-1, PANC-1
  GI50: 1.1 µM
  IC (TGI): 3.48 µM
PANC-1; PANC-1, read-out: LC50 PANC-1, PANC-1
  CC50: 8.81 µM
SK-MEL-28; SK-MEL-28, MEL-28
  GI50: 1.62 µM
  IC (TGI): 3.04 µM
SK-MEL-28; SK-MEL-28, read-out: LC50 MEL-28, MEL-28
  CC50: 5.67 µM
K-562; K562, K-562
  GI50: 1.64 µM
  IC (TGI): 3.45 µM
K-562; K562, read-out: LC50 K-562, K-562
  CC50: 7.27 µM
LoVo; read-out: LC50 LOVO, LOVO
  CC50: 5.67 µM
LoVo
  GI50: 1.13 µM
  IC (TGI): 2.53 µM
HT-29; HT-29, HT-29
  GI50: 1.97 µM
  IC (TGI): 3.7 µM
HT-29; HT-29, read-out: LC50 HT-29, HT-29
  CC50: 6.98 µM
HeLa-APL
  GI50: 1.88 µM
  IC (TGI): 3.9 µM
HeLa-APL; read-out: LC50 HELA-APL, HELA-APL
  CC50: 8.12 µM
